Experiment: xn = mol fraction of the nth substance listed
Details: 101 kPa, Liquid; for viscosity: Capillary tube (Ostwald / Ubbelohde) method; for mass density: Vibrating tube method

CCOC(=O)CCl [ethyl chloroethanoate] + CCC(=O)CC
Details	mass density, 298.15 K [kg/m3]	mass density, 308.15 K [kg/m3]	mass density, 318.15 K [kg/m3]	viscosity, 298.15 K [mPa·s]	viscosity, 308.15 K [mPa·s]	viscosity, 318.15 K [mPa·s]
x2 = 0	1144.11	1131.46	1118.74	1.095	0.939	0.815
x2 = 0.0502	1127.54	1115	1102.39	1.05	0.902	0.783
x2 = 0.0877	1115.18	1102.73	1090.21	1.017	0.874	0.76
x2 = 0.1207	1104.29	1091.91	1079.49	0.987	0.85	0.741
x2 = 0.1692	1088.28	1076.05	1063.74	0.944	0.815	0.713
x2 = 0.2551	1059.87	1047.89	1035.82	0.87	0.756	0.666
x2 = 0.3266	1036.16	1024.36	1012.49	0.813	0.71	0.63
x2 = 0.413	1007.44	995.88	984.26	0.75	0.659	0.587
x2 = 0.4998	978.47	967.18	955.81	0.695	0.612	0.548
x2 = 0.574	953.63	942.56	931.39	0.653	0.575	0.517
x2 = 0.6638	923.44	912.62	901.71	0.604	0.533	0.48
x2 = 0.7475	895.2	884.6	873.95	0.562	0.498	0.449
x2 = 0.827	868.26	857.9	847.48	0.522	0.466	0.421
x2 = 0.9114	839.54	829.45	819.27	0.481	0.434	0.391

Source: the NIST ThermoML archive (doi:10.1016/j.tca.2013.03.008)
